Results taken from publication PMC9024893, “1,2,4-Trioxolane and 1,2,4,5-Tetraoxane Endoperoxides against Old-World Leishmania Parasites: In Vitro Activity and Mode of Action” (Pharmaceuticals, 2022).
Read-outs that look alike come from different tables or passages of the source.

How the values were obtained:
[1] = Cytotoxicity assay (MTT), J774A.1 cell line; type: cell-based; settings: mouse
Procedure: (§1) Adherent BALB/c mouse macrophage cell line J774A.1 (ATCC® TIB 67™) and suspension human acute monocytic leukemic cell line THP-1 (ATCC® TIB-202™) were purchased from DSMZ, Germany were cultured and maintained in DMEM medium (Gibco) and RPMI 1640 (Sigma), respectively, supplemented with 10% FBS, 1% penicillin-streptomycin (Sigma) and L-glutamine 200 mM (Sigma), at 37 °C, 5% CO2.
(§2) Cell lines J774A.1 and THP-1 were used to estimate CC50 of the peroxides. Cells were plated in 96-well flat bottom culture plates (VWR) at 5 × 10^5 cells/mL. The monocytic cell line THP-1 was differentiated in RPMI medium with phorbol myristate acetate (PMA) (25 ng/mL; Sigma) for 24 h, followed by a washing step with RPMI medium. Six serial concentrations of the compounds (Table 3) were added in four replicates and the plates were incubated at 37 °C ± 1 °C, 5% CO2 for 48 h. An untreated control (cells in DMEM or RPMI medium plus 0.5% DMSO as vehicle) and blank (medium alone) were plated out in quadruplicate. After the incubation period, 20 µL/well of MTT [3-(4,5-dimethylthiazol-2-yl)-2,5-diphenyltetrazolium bromide] was added to a final concentration of 5 µg/mL in 1× phosphate-buffered saline (PBS, Merck), with an additional 4 h incubation at 36 °C, as previously described. The formazan salts were resuspended in 2-propanol (Merck) and the cell viability was determined by measuring absorbance with a Synergy ™HTX Multi Mode Microplate Reader at 595 nm (Dynex Technologies). The CC50 values were calculated fitting the data as a non-linear regression with variable slope using a dose-response inhibitory model, in the GraphPad Prism V 8.0 program. Each compound was tested in three independent assays.

[2] = Cytotoxicity assay (MTT), PMA-differentiated THP-1 cell line; type: cell-based; settings: human
Procedure: as §1, §2

[3] = tested on: L. infantum IMT151 promastigotes; test: Promastigotes susceptibility assay (MTT), L. infantum; type: cell-based; settings: Leishmania infantum, read-out: IC50 ± SD, L. infantum promastigotes
Procedure: (§3) Promastigote forms of strains of L. infantum (MHOM/PT/1988/IMT151) and L. donovani (MHOM/BD/2006/BD14) were cultured at 24 °C ± 1 °C in M199 medium (Sigma) supplemented with 20% foetal bovine serum (FBS, Sigma) and 1% penicillin-streptomycin (Sigma). L. infantum strain belongs to IHMT, Portugal cryobank collection and the L. donovani strain was kindly provided by Dr. Katrin Kuhls, Technical University of Applied Sciences Wildau, Germany. Promastigotes used for the experiments had 7 to 12 in vitro passages in culture after isolation from mice, in order to keep virulence, and were used when the stationary phase of growth was reached (day 5 to 6), corresponding to the highest promastigotes density.
(§4) For the determination of the antileishmanial activity and IC50, promastigotes of L. infantum and L. donovani were plated in 96-well flat bottom culture plates at a concentration of 5 × 10^6 parasites/mL and incubated with six serial concentrations of each compound (Table 3), in four replicates, including the control drugs, amphotericin B, miltefosine and pentamidine. One untreated control (parasites with M199 medium plus 0.5% DMSO as vehicle solution) and one blank (M199 medium alone) were also plated out in quadruplicate. After 48 h incubation at 24 °C ± 1 °C, the inhibitory activity of the compounds was evaluated using the MTT, as previously described, with an additional 4 h incubation at 36 °C. Results were expressed in terms of percentage of parasite viability relative to nontreated control and IC50 was calculated fitting the data as a non-linear regression with variable slope using a dose-response inhibitory model, in the GraphPad Prism V 8.0 program. Each compound was tested in three independent assays. […]

[4] = tested on: L. donovani BD14 promastigotes; test: Promastigotes susceptibility assay (MTT), L. donovani; type: cell-based; settings: Leishmania donovani, read-out: IC50 ± SD, L. donovani promastigotes
Procedure: as §3, §4

[5] = tested on: L. donovani BD14 intracellular amastigotes; test: Intracellular amastigotes assay in J774A.1 macrophages, L. donovani; type: cell-based; settings: Leishmania donovani, read-out: IC50 ± SD, L. donovani intracellular amastigotes
Procedure: (§5) The intracellular assay using the macrophage J774A.1 cell line was performed with the compounds that presented best SI on the promastigote’s susceptibility assay. J774A.1 cells were adjusted to 2.5 × 10^5 cells/mL in supplemented DMEM medium. 200 μL/well of the cell suspension was placed in 16 well Lab Tek culture glass slides (Nunc), and incubated at 37 °C ± 1 °C, 5% CO2, for 3 h, to enable the cells to adhere to the slides. After a washing step with DMEM to discard non-attached cells, the cells were infected with 2.5 × 10^6 cells/mL promastigotes in a 10:1 parasite-host cell proportion for 24 h. Compounds and control drugs were added in two replicates of six serial concentrations (Table 3). As negative control, macrophages were cultivated in medium and DMSO, as vehicle solution (0.5% v/v). Slides were incubated for 48 h at the same temperature. After a washing step with 1× PBS (Sigma), slides were fixed and stained, and the infection index was calculated according to [34] by counting the number of intracellular amastigotes per 100 macrophages, in treated and untreated cells. Two independent experiments were performed to determine the amastigotes IC50 of each compound, which was calculated by fitting the data as a non-linear regression with variable slope using a dose-response inhibitory model, in the GraphPad Prism V 8.0 program. SI was determined as described above.

[6] = tested on: L. infantum IMT151 intracellular amastigotes; test: Intracellular amastigotes assay in J774A.1 macrophages, L. infantum; type: cell-based; settings: Leishmania infantum, read-out: IC50 ± SD, L. infantum intracellular amastigotes
Procedure: as §5

[7] = tested on: L. infantum promastigotes; test: Promastigotes DNA fragmentation (agarose gel); type: cell-based, Leishmania infantum; settings: IC50 concentrations, 24 h
Procedure: 2 mM H2O2 was used as DNA damage inductor and non-treated cells were used as control. After centrifugation (10 min, 800× g) DNA was extracted using a commercial extraction kit (High Template DNA Preparation Kit, Roche, Germany), according to the manufacturer’s instructions.

[8] = J774A.1 macrophage cells, 48 h incubation, MTT, read-out: CC50 ± SD, J774A.1 Cell Line
[9] = PMA-differentiated THP-1 cells, 48 h incubation, MTT, read-out: CC50 ± SD, THP-1 Cell Line
[10] = 48 h incubation, MTT, read-out: CC50 ± SD, J774A.1 Cell Line
[11] = 48 h incubation, MTT, read-out: CC50 ± SD, THP-1 Cell Line
[12] = J774.A1, 48 h incubation, J774A.1 host cells

## OCC1CCC2(CC1)OOC1(OO2)C2CC3CC(C2)CC1C3 (stereo not drawn) [LC146]
[1]; [8]
  CC50 at 48 h: 1465 ± 13 µM
[2]; [9]
  CC50 at 48 h: 3220 ± 72 µM
[3]; 48 h incubation, MTT
  IC50: 492 ± 22.7 µM
[4]; 48 h incubation, MTT
  IC50: 793 ± 37.2 µM

## O=C1CCC2(CC1)OOC1(O2)C2CC3CC(C2)CC1C3 (stereo not drawn) [LC50, Dispiro[cyclohexane-1,3'-[1,2,4]trioxolane-5',2''-tricyclo[3.3.1.13,7]decan]-4-one]
[1]; [10]
  CC50 at 48 h: 519 ± 140 µM
[2]; [11]
  CC50 at 48 h: 713 ± 18.4 µM
[3]; 48 h
  IC50: 378.9 ± 2.8 µM
[4]; 48 h
  IC50: 354 ± 8.4 µM

## C1C2CC3CC1CC(C2)C31OOC2(CCC(Nc3nnn[nH]3)CC2)O1 (stereo not drawn) [LC136, N-1H-1,2,3,4-Tetraazol-5-yl-dispiro[cyclohexane-1,3'-[1,2,4]trioxolane-5',2''-tricyclo[3.3.1.13,7]decan]-4-ylamine]
[1]; [8]
  CC50 at 48 h: 113 ± 13.8 µM
[2]; [9]
  CC50 at 48 h: 250 ± 4.1 µM
[3]; 48 h incubation, MTT
  IC50: 434 ± 6.4 µM
[4]; 48 h incubation, MTT
  IC50: 232 ± 28.4 µM

## c1ccc(-n2nnnc2OCC2CCC3(CC2)OOC2(O3)C3CC4CC(C3)CC2C4)cc1 (stereo not drawn) [LC132]
[1]; [8]
  CC50 at 48 h: 45.8 ± 19.9 µM
[5]; [12]
  IC50: 9.4 ± 0.1 µM
[2]; [9]
  CC50 at 48 h: 99.8 ± 16.4 µM
[6]; [12]
  IC50: 13.2 ± 5.2 µM
[3]; 48 h incubation, MTT
  IC50: 13 ± 1.7 µM
[4]; 48 h incubation, MTT
  IC50: 14.3 ± 5.5 µM
[7]
  genomic DNA fragmentation: did not produce DNA fragmentation

## CCCCCCCCCCCCCCCCOP(=O)([O-])OCC[N+](C)(C)C [Miltefosine, reference compound]
[1]
  CC50 at 48 h: 94.4 ± 17.3 µM
[5]; [12]
  IC50: 13.3 ± 3 µM
[2]
  CC50 at 48 h: 100 ± 12.1 µM
[6]; [12]
  IC50: 16.8 ± 11.7 µM
[3]; 48 h incubation, MTT
  IC50: 149 ± 3.5 µM
[4]; 48 h incubation, MTT
  IC50: 24.2 ± 10 µM

## C1CC2(CCN1)OOC1(OO2)C2CC3CC(C2)CC1C3 [LC139]
[1]; [10]
  CC50 at 48 h: 913 ± 70.7 µM
[2]; [11]
  CC50 at 48 h: 115 ± 11.4 µM
[3]; 48 h
  IC50: 472 ± 39.2 µM
[4]; 48 h
  IC50: 507 ± 53.3 µM

## Cn1nnc(NCC2CCC3(CC2)OOC2(O3)C3CC4CC(C3)CC2C4)n1 (stereo not drawn) [LC131]
[1]; [8]
  CC50 at 48 h: 34.1 ± 14.5 µM
[2]; [9]
  CC50 at 48 h: 78.2 ± 14.1 µM
[3]; 48 h incubation, MTT
  IC50: 321 ± 11.8 µM
[4]; 48 h incubation, MTT
  IC50: 124 ± 19 µM

## O=C1CCC2(CC1)OOC1(OO2)C2CC3CC(C2)CC1C3 [LC140]
[1]; [8]
  CC50 at 48 h: 678 ± 29.9 µM
[2]; [9]
  CC50 at 48 h: 1400 ± 76 µM
[3]; 48 h incubation, MTT
  IC50: 258 ± 6.4 µM
[4]; 48 h incubation, MTT
  IC50: 460 ± 38.3 µM

## OCC1CCC2(CC1)OOC1(O2)C2CC3CC(C2)CC1C3 (stereo not drawn) [LC93]
[1]; [8]
  CC50 at 48 h: 12 ± 0.5 µM
[2]; [9]
  CC50 at 48 h: 185 ± 16.1 µM
[3]; 48 h incubation, MTT
  IC50: 435 ± 22.7 µM
[4]; 48 h incubation, MTT
  IC50: 153 ± 22.4 µM

## C1CCC2(CC1)OOC1(OO2)C2CC3CC(C2)CC1C3 [LC137]
[1]; [10]
  CC50 at 48 h: 443 ± 44 µM
[5]; J774.A1, 48 h
  IC50: 88.3 ± 14.2 µM
[2]; [11]
  CC50 at 48 h: 3569 ± 22 µM
[6]; J774.A1, 48 h
  IC50: 168 ± 8.9 µM
[3]; 48 h
  IC50: 137.1 ± 0.2 µM
[4]; 48 h
  IC50: 143 ± 16.5 µM

## C1C2CC3CC1CC(C2)C31OOC2(CCC(Nc3nnn[nH]3)CC2)OO1 (stereo not drawn) [LC163]
[1]; [8]
  CC50 at 48 h: 474 ± 83.5 µM
[2]; [9]
  CC50 at 48 h: 753 ± 90.3 µM
[3]; 48 h incubation, MTT
  IC50: 190 ± 21.6 µM
[4]; 48 h incubation, MTT
  IC50: 532 ± 105 µM

## O=S1(=O)N=C(OCC2CCC3(CC2)OOC2(O3)C3CC4CC(C3)CC2C4)c2ccccc21 (stereo not drawn) [LC129]
[1]; [8]
  CC50 at 48 h: 323 ± 24.5 µM
[2]; [9]
  CC50 at 48 h: 356 ± 31.4 µM
[3]; 48 h incubation, MTT
  IC50: 266 ± 13.3 µM
